For this assay, the system named is inflamed ears of experimental mice. Put plainly: Anti-inflammatory activity on ethyl phenyl propyolate-inflamed mice ears. The assay is classed as in vivo. The protocol:
The test for anti-inflammatory activity can be done on lab mice by applying ethyl phenyl propyolate on mice ears at a concentration of 1 mg per ear to induce inflammation. The fullest swollen ear can be observed 1 hour after the application, then the tested extracts and reference compound, dexamethasone, are applied onto the inflamed ears at a dose of 0.05 mg/ear. The reduction in the thickness of the ears in comparison with the control group indicates anti-inflammatory activity, as shown in Table 1.

SMILES strings stand for the structures.

Take `C[C@@H]1C[C@H]2[C@@H]3CCC4=CC(=O)C=C[C@]4(C)[C@@]3(F)[C@@H](O)C[C@]2(C)[C@@]1(O)C(=O)CO` [Anti-inflammatory, Dexamethasone]: the “Percentage reduction of inflamed ears” value is, setting by setting: (0 min, ethyl phenyl propyolate 1 mg per ear) 0%; (60 min after inducer (fullest swelling, time of application), 0.05 mg/ear) 54.253%; (90 min, 0.05 mg/ear topical) 42.533%; (120 min, 0.05 mg/ear topical) 38.752%; (240 min, 0.05 mg/ear topical) 25.142%; (360 min, 0.05 mg/ear topical) 13.422%. The “Percentage reduction of inflamed ears” value (480 min, 0.05 mg/ear topical) is given as 11.531%.

The values are drawn from US20050191267A1, “Anti-photoaging cosmeceutical composition” (priority 2004, published 2005).
